Test results as given in publication PMC6045489 (ACS Omega, 2018).

Legend:
[1] = tested on: MDA-MB-231 human breast adenocarcinoma cell line; test: Sulforhodamine B antiproliferative assay, MDA-MB-231; type: cell-based; conditions: MDA-MB-231, read-out: IC50 MDA-MB-231, mean ± SEM
[2] = tested on: DU-145 prostate cancer cell line; test: Sulforhodamine B antiproliferative assay, DU-145; type: cell-based; conditions: Homo sapiens, DU-145, read-out: IC50 DU-145, mean ± SEM
[3] = tested on: A549 lung cancer cell line; test: Sulforhodamine B antiproliferative assay, A549; type: cell-based; conditions: Homo sapiens, A549, read-out: IC50 A549, mean ± SEM
[4] = tested on: HeLa cervical cancer cell line; test: Sulforhodamine B antiproliferative assay, HeLa; type: cell-based; conditions: Homo sapiens, read-out: IC50 HeLa, mean ± SEM
[5] = tested on: HEK-293 primary human embryonic kidney cell line; test: Sulforhodamine B assay, control cell line HEK-293; type: cell-based; conditions: HEK293, read-out: IC50 HEK-293, mean ± SEM, normal control cells
HeLa cells = conditions: read-out: IC50 HeLa (reported literature value); cited from earlier work
DU-145 cells = test: Immunoblot of apoptotic proteins; type: cell-based, human; conditions: DU-145, immunoblot, vs vehicle control

Row | Compound | IC50 [1] | IC50 [2] | IC50 [3] | IC50 [4] | IC50 [5] | IC50 (HeLa cells) | Annexin V protein expression (DU-145 cells) | BAX protein expression (DU-145 cells)
1 | CC(O)[C@@H]1CCCN1C(=O)[C@@H]1CCCN1C(=O)OC(C)(C)C (mixture of isomers) [Compound 22, (2S)-tert-Butyl 2-((2S)-2-(1-Hydroxyethyl)pyrrolidine-1-carbonyl)pyrrolidine-1-carboxylate] | 8 ± 0.4 µM | 2000 ± 800 nM | 0.5 ± 0.03 µM | 26 ± 3 µM | 3390 ± 123 µM | – | – | –
2 | jahanyne | – | – | – | – | – | 1800 nM | – | –
3 | C#CCCCC[C@H](C)C[C@@H](C)C(=O)O [Compound 2, (2R,4S)-2,4-Dimethyldec-9-ynoic Acid] | 164 ± 20 µM | 123000 ± 20000 nM | 167 ± 12 µM | 122 ± 14 µM | 259 ± 35 µM | – | – | –
4 | C#CCCCC[C@H](C)C[C@@H](C)C(=O)N1C(=O)OC[C@H]1Cc1ccccc1 [Compound 17, (R)-4-Benzyl-3-((2R,4S)-2,4-dimethyldec-9-ynoyl)oxazolidin-2-one] | 102 ± 14 µM | 188000 ± 29000 nM | 158 ± 15 µM | 160 ± 10 µM | 293 ± 16 µM | – | – | –
5 | COc1cccc2c1C(=O)c1c(O)c3c(c(O)c1C2=O)C[C@@](O)(C(=O)CO)C[C@@H]3O[C@H]1C[C@H](N)[C@H](O)[C@H](C)O1 [doxorubicin, reference compound] | 1 ± 0.1 µM | 500 ± 200 nM | 1 ± 0.1 µM | – | 39 ± 2 µM | – | highly expressed | highly expressed
6 | CC(=O)[C@@H]1CCCN1C(=O)[C@@H]1CCCN1C(=O)OC(C)(C)C [Compound 21, tert-Butyl(S)-2-((S)-2-acetylpyrrolidine-1-carbonyl)pyrrolidine-1-carboxylate] | 3 ± 0.1 µM | 1000 ± 900 nM | 5 ± 0.4 µM | 5 ± 1 µM | 5440 ± 245 µM | – | – | –
